Each structure is given as a SMILES string. Some results are limits rather than exact numbers.

This assay deals with T1, hMC2 receptor (crude hMC2R membranes from CRE-bla-CHO-K1 cells stably expressing hMC2 receptor and hMRAP accessory protein) (Homo sapiens, UniProt Q01718).
T1 construct: crude membrane fractions
T1 sequence (Q01718 whole entry): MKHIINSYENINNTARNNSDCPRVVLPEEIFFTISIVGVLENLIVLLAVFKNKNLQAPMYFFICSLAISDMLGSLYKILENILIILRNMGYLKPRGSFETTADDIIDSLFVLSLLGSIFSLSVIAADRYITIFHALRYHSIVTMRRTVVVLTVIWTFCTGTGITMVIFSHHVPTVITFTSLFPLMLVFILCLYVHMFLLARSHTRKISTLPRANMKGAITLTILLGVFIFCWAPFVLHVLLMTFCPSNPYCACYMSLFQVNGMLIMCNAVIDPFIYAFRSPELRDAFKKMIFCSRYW
T1 sequence (Q8TCY5 whole entry partner): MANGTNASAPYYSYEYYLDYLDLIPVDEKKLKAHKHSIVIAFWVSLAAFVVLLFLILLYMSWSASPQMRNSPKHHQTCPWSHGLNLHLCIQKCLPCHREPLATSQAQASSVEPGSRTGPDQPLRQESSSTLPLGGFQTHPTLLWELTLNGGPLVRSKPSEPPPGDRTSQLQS
Put plainly: hMC2 membrane binding assay ([125I]ACTH (1-39) Tyr23, SPA). The following applies: displacement of 0.2 nM [125I]ACTH (1-39) Tyr23 from hMC2R membranes, 1.5 hours at room temperature; read-out: MC2R binding potency. In outline: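 Crude membranes from CRE-bla-CHO-K1 cells stably co-expressing hMC2R and hMRAP, premixed with WGA PVT SPA beads in pH 7.4 HEPES buffer (5 mM MgCl2, 1 mM CaCl2, 0.20% BSA, protease inhibitors). Compounds compete with [125I]ACTH(1-39) Tyr23, read by scintillation. Ki from non-linear regression.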
For the compound `C[C@@H](CN(C)C)NC(=O)C1(c2ccc(-c3cccn3C)nc2)CCN(c2ccc(C(F)(F)F)cc2C#N)CC1` [Compound 1-261, 1-[2-cyano-4-(trifluoromethyl)phenyl]-N-[(2S)-1-(dimethylamino)propan-2-yl]-4-[6-(1-methyl-1H-pyrrol-2-yl)pyridin-3-yl]piperidine-4-carboxamide], the Ki was under 10 nM. The result for `Cn1cccc1-c1ccc(C2(C(=O)N[C@H]3C[C@H](N)C3)CCN(c3ccc(C(F)(F)F)cc3C#N)CC2)cn1` [Compound 1-234, 1-[2-cyano-4-(trifluoromethyl)phenyl]-4-[6-(1-methyl-1H-pyrrol-2-yl)pyridin-3-yl]-N-[(1R,3R)-3-aminocyclobutyl]piperidine-4-carboxamide] reads 10 to 100 nM. In the case of `CCOc1ncccc1-c1ncc(C2(C(=O)NCCNC)CCN(c3ccc(C(F)(F)F)cc3Cl)CC2)cc1F` [Compound 1-299, 1-[2-chloro-4-(trifluoromethyl)phenyl]-4-{2′-ethoxy-3-fluoro-[2,3′-bipyridin]-5-yl}-N-[2-(methylamino)ethyl]piperidine-4-carboxamide], the Ki was under 10 nM. The result for `Cn1cccc1-c1ccc(C2(C(=O)N[C@@H]3CN4CCC3CC4)CCN(c3ccc(C(F)(F)F)cc3C#N)CC2)cn1` [Compound 1-187, N-[(3S)-1-azabicyclo[2.2.2]octan-3-yl]-1-[2-cyano-4-(trifluoromethyl)phenyl]-4-[6-(1-methyl-1H-pyrrol-2-yl)pyridin-3-yl]piperidine-4-carboxamide] reads under 10 nM. Then `CCOc1ncccc1-c1ncc(C2(C(=O)NCCN(C)C)CCN(c3ccc(C(F)(F)F)cc3Cl)CC2)cc1F` [Compound 1-288, 1-[2-chloro-4-(trifluoromethyl)phenyl]-N-[2-(dimethylamino)ethyl]-4-{2′-ethoxy-3-fluoro-[2,3′-bipyridin]-5-yl}piperidine-4-carboxamide], with under 10 nM. For the compound `CNCCNC(=O)C1(c2cnc(-c3cccn3C)c(F)c2)CCN(c2ccc(C(F)(F)F)cc2Cl)CC1` [Compound 1-310, 1-[2-chloro-4-(trifluoromethyl)phenyl]-4-[5-fluoro-6-(1-methyl-1H-pyrrol-2-yl)pyridin-3-yl]-N-[2-(methylamino)ethyl]piperidine-4-carboxamide], the Ki is under 10 nM. As for `COc1ccccc1-c1ccc(C2(NC(=O)O[C@H]3CCN(C)C3)CCN(c3ccc(C(F)(F)F)cc3C#N)CC2)cn1` [Compound 2-53, (3S)-1-methylpyrrolidin-3-yl N-{1-[2-cyano-4-(trifluoromethyl)phenyl]-4-[6-(2-methoxyphenyl)pyridin-3-yl]piperidin-4-yl}carbamate], the Ki is under 10 nM. With `CCOc1ccccc1-c1ccc(C2(NC(=O)CN(C)C)CCN(c3ccc(C(F)(F)F)cc3C#N)CC2)cn1` [Compound 2-34, N-{1-[2-cyano-4-(trifluoromethyl)phenyl]-4-[6-(2-ethoxyphenyl)pyridin-3-yl]piperidin-4-yl}-2-(dimethylamino)acetamide], the Ki is under 10 nM. Consider `CN1CC[C@@H](NC(=O)C2(c3ccc(-c4ccccc4C#N)nc3)CCN(c3ccc(C(F)(F)F)cc3C#N)CC2)C1` [Compound 1-78, 1-[2-cyano-4-(trifluoromethyl)phenyl]-4-[6-(2-cyanophenyl)pyridin-3-yl]-N-[(3R)-1-methylpyrrolidin-3-yl]piperidine-4-carboxamide], for which the Ki is under 10 nM. Regarding `CCOc1ncccc1-c1ccc(C2(C(=O)N[C@H]3CCN(C)C3)CCN(c3ccc(C(C)(F)F)cc3C#N)CC2)cn1` [Compound 1-59, 1-[2-cyano-4-(1,1-difluoroethyl)phenyl]-4-{2′-ethoxy-[2,3′-bipyridin]-5-yl}-N-[(3S)-1-methylpyrrolidin-3-yl]piperidine-4-carboxamide], the Ki is under 10 nM. The result for `COc1ccccc1-c1ccc(C2(C(=O)NC3CN(C)C3)CCN(c3ccc(C(F)(F)F)cc3C#N)CC2)cn1` [Compound 1-94, 1-[2-cyano-4-(trifluoromethyl)phenyl]-4-[6-(2-methoxyphenyl)pyridin-3-yl]-N-(1-methylazetidin-3-yl)piperidine-4-carboxamide] reads under 10 nM; that for `COc1ccccc1-c1ccc(C2(C(=O)N[C@H]3CCN(C)C3)CCN(c3ccc(Cl)cc3C#N)CC2)cn1` [Compound 1-91, 1-(4-chloro-2-cyanophenyl)-4-[6-(2-methoxyphenyl)pyridin-3-yl]-N-[(3S)-1-methylpyrrolidin-3-yl]piperidine-4-carboxamide], under 10 nM. In the case of `Cn1cccc1-c1ccc(C2(C(=O)NC[C@@H]3CCN3)CCN(c3ccc(C(F)(F)F)cc3C#N)CC2)cn1` [Compound 1-235, N-{[(2S)-azetidin-2-yl]methyl}-1-[2-cyano-4-(trifluoromethyl)phenyl]-4-[6-(1-methyl-1H-pyrrol-2-yl)pyridin-3-yl]piperidine-4-carboxamide], the Ki was in the range of 10 to 100 nM. For the compound `CCOc1ncccc1-c1ccc(C2(NC(=O)O[C@H]3CCN(C)C3)CCN(c3ccc(C(F)(F)F)cc3C#N)CC2)cn1` [Compound 2-18, (3S)-1-methylpyrrolidin-3-yl N-{1-[2-cyano-4-(trifluoromethyl)phenyl]-4-{2′-ethoxy-[2,3′-bipyridin]-5-yl}piperidin-4-yl}carbamate], the Ki was under 10 nM. `CCOc1ncccc1-c1ccc(C2(C(=O)N[C@@H]3CCN(C)C3)CCN(c3ccc(C(F)(F)F)cc3C#N)CC2)cn1` [Compound 1-9, 1-[2-cyano-4-(trifluoromethyl)phenyl]-4-{2′-ethoxy-[2,3′-bipyridin]-5-yl}-N-[(3R)-1-methylpyrrolidin-3-yl]piperidine-4-carboxamide]: the Ki is under 10 nM. Take `Cn1cccc1-c1ccc(C2(C(=O)N[C@H]3CCNC3)CCN(c3ccc(C(F)(F)F)cc3C#N)CC2)cn1` [Compound 1-152, 1-[2-cyano-4-(trifluoromethyl)phenyl]-4-[6-(1-methyl-1H-pyrrol-2-yl)pyridin-3-yl]-N-[(3S)-pyrrolidin-3-yl]piperidine-4-carboxamide]: the Ki was under 10 nM.

In the case of `Cc1ccc(F)cc1-c1ccc(C2(C(=O)N[C@@H]3CCN(C)C3)CCN(c3ccc(C(F)(F)F)cc3C#N)CC2)cn1` [Compound 1-99, 1-[2-cyano-4-(trifluoromethyl)phenyl]-4-[6-(5-fluoro-2-methylphenyl)pyridin-3-yl]-N-[(3R)-1-methylpyrrolidin-3-yl]piperidine-4-carboxamide], the Ki was under 10 nM. `CCOc1ccccc1-c1ncc(C2(C(=O)NCCNC)CCN(c3ccc(C(F)(F)F)cc3F)CC2)cc1F` [Compound 1-290, 4-[6-(2-ethoxyphenyl)-5-fluoropyridin-3-yl]-1-[2-fluoro-4-(trifluoromethyl)phenyl]-N-[2-(methylamino)ethyl]piperidine-4-carboxamide]: the Ki was under 10 nM.

For the compound `CCOc1ncccc1-c1ccc(C2(C(=O)N[C@@H]3CCNC3)CCN(c3ccc(C(F)(F)F)cc3C#N)CC2)nc1` [Compound 1-21, 1-[2-cyano-4-(trifluoromethyl)phenyl]-4-{2′-ethoxy-[3,3′-bipyridin]-6-yl}-N-[(3R)-pyrrolidin-3-yl]piperidine-4-carboxamide], the Ki was under 10 nM. Then `CCc1ncccc1-c1ccc(C2(C(=O)N[C@H]3CCN(C)C3)CCN(c3ccc(C(F)(F)F)cc3Cl)CC2)cn1` [Compound 1-172, 1-[2-chloro-4-(trifluoromethyl)phenyl]-4-{2′-ethyl-[2,3′-bipyridin]-5-yl}-N-[(3S)-1-methylpyrrolidin-3-yl]piperidine-4-carboxamide], with under 10 nM. Then `CN1CC[C@@H](NC(=O)C2(c3ccc(-c4ccccc4C(C)(F)F)nc3)CCN(c3ccc(C(F)(F)F)cc3C#N)CC2)C1` [Compound 1-84, 1-[2-cyano-4-(trifluoromethyl)phenyl]-4-{6-[2-(1,1-difluoroethyl)phenyl]pyridin-3-yl}-N-[(3R)-1-methylpyrrolidin-3-yl]piperidine-4-carboxamide], with 10 to 100 nM; and `Cc1sccc1-c1ccc(C2(C(=O)N[C@H]3CCN(C)C3)CCN(c3ccc(C(F)(F)F)cc3C#N)CC2)cn1` [Compound 1-122, 1-[2-cyano-4-(trifluoromethyl)phenyl]-N-[(3S)-1-methylpyrrolidin-3-yl]-4-[6-(2-methylthiophen-3-yl)pyridin-3-yl]piperidine-4-carboxamide], with under 10 nM. In the case of `CCOc1ncccc1-c1ccc(C2(C(=O)N[C@@H]3CCN(C)C3)CCN(c3c(Cl)cc(C(F)(F)F)cc3C#N)CC2)cc1` [Compound 1-29, 1-[2-chloro-6-cyano-4-(trifluoromethyl)phenyl]-4-[4-(2-ethoxypyridin-3-yl)phenyl]-N-[(3R)-1-methylpyrrolidin-3-yl]piperidine-4-carboxamide], the Ki lay in the range of 10 to 100 nM.

Consider `CCOc1ncccc1-c1ccc(C2(NC(=O)N[C@H]3CCN(C)C3)CCN(c3ccc(C(F)(F)F)cc3C#N)CC2)cn1` [Compound 2-20, 1-{1-[2-cyano-4-(trifluoromethyl)phenyl]-4-{2′-ethoxy-[2,3′-bipyridin]-5-yl}piperidin-4-yl}-3-[(3S)-1-methylpyrrolidin-3-yl]urea], for which the Ki is under 10 nM. As to `CCOc1ccccc1-c1ccc(C2(C(=O)NC3CN(C)C3)CCN(c3ccc(C(F)(F)F)cc3C#N)CC2)nn1` [Compound 1-136, 1-[2-cyano-4-(trifluoromethyl)phenyl]-4-[6-(2-ethoxyphenyl)pyridazin-3-yl]-N-(1-methylazetidin-3-yl)piperidine-4-carboxamide], the Ki is under 10 nM.

In the case of `CN1CC[C@@H](NC(=O)C2(c3ccc(-c4ccn(C)c4)nc3)CCN(c3ccc(C(F)(F)F)cc3C#N)CC2)C1` [Compound 1-115, 1-[2-cyano-4-(trifluoromethyl)phenyl]-4-[6-(1-methyl-1H-pyrrol-3-yl)pyridin-3-yl]-N-[(3R)-1-methylpyrrolidin-3-yl]piperidine-4-carboxamide], the Ki was 10 to 100 nM.

Source of the values: patent publication US12492181B2, “Gem-disubstituted piperidine melanocortin subtype-2 receptor (MC2R) antagonists and uses thereof” (Crinetics Pharmaceuticals, Inc., priority 2019, dated 2025).
